Assay results: patent publication US11590167B2, “Methods and compositions for use of therapeutic T cells in combination with kinase inhibitors” (Juno Therapeutics, Inc., priority 2016, dated 2023)

Key:
[1] = molecular target: T1, RLK/TXK (Homo sapiens, UniProt P42681); settings: literature value given as embodiment; read-out: IC50 value, inhibitory activity against RLK/TXK; cited from earlier work
T1 sequence (P42681 1-527): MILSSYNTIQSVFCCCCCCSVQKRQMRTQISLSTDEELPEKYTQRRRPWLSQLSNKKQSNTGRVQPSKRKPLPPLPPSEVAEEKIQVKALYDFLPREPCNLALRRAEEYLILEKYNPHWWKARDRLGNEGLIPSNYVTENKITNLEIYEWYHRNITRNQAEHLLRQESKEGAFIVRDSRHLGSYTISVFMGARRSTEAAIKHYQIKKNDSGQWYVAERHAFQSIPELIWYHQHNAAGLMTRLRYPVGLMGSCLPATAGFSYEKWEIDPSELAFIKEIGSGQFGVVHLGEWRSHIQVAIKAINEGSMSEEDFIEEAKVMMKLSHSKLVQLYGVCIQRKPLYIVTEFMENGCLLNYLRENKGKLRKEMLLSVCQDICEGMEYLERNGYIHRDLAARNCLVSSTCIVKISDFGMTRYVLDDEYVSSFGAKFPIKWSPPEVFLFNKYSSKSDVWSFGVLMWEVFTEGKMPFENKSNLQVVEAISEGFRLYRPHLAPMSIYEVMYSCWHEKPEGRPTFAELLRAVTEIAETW

[2] = tested on: Nalm-6 cells expressing firefly luciferase; experiment: Nalm-6 disseminated tumor xenograft mouse model, inhibitor in drinking water with suboptimal anti-CD19 CAR T dose; type: in vivo, NSG mice
Method: To permit assessment of the effect of a combination therapy with the inhibitor, a suboptimal dose of anti-CD19 CAR T cells was i.v. injected into the mice at 5×10^5/mouse at day 5. As a control, mice were administered the vehicle control without administration of the CAR-T cells or inhibitor.
Following treatment as described above, the tumor growth and percent survival of treated mice was determined.

[3] = tested on: anti-CD19 CAR T cells; experiment: TH1 phenotype of anti-CD19 CAR T cells in serial restimulation assay (flow cytometry); type: cell-based, human; settings: 18-day serial stimulation, three donors; 500 nM ibrutinib (P<0.01); compound of Formula (II) treatment
Method: A serial restimulation assay was performed as described above and cells were harvested at various times and analyzed by flow cytometry to assess percentage of TH1-phenotype (assessed as CD4+CXCR3+CRTH2-) T cells or TH2-phenotype (assessed as CD4+CXCR3-CRTH2+).

[4] = observed Cmax quoted for dosage range; cited from earlier work
[5] = tested on: anti-CD19 CAR T cells; experiment: Cytolytic activity of anti-CD19 CAR T cells co-cultured with K562-CD19 target cells (IncuCyte); type: cell-based, human; settings: E:T 2.5:1, four days, three healthy donors; ibrutinib 0.5-5000 nM; compound of Formula (II) 50 to 5000 nM
Excerpt: To generate CAR-expressing T cells, T cells were isolated by immunoaffinity-based enrichment from three healthy human donor subjects, and cells from each donor were activated and transduced with a viral vector encoding an anti-CD19 CAR. The CAR contained an anti-CD19 scFv, an Ig-derived spacer, a human CD28-derived transmembrane domain, a human 4-1BB-derived intracellular signaling domain and a human CD3 zeta-derived signaling domain. The nucleic acid construct encoding the CAR also included a truncated EGFR (tEGFR) sequence for use as a transduction marker, separated from the CAR sequence by a self-cleaving T2A sequence.
CAR-expressing CD4+ and CD8+ cells were mixed 1:1 for each donor, individually, and the pooled cells for each donor assessed in vitro under various conditions.
CAR T cells generated as described above were plated in triplicate on Poly-D-Lysine plates and then co-cultured with ibrutinib-resistant, CD19-expressing target cells (K562 cells transduced to express CD19, K562-CD19) at an effector to target (E:T) ratio of 2.5:1. The targets cells were labeled with NucLight Red (NLR) to permit tracking of target cells by microscopy. […] Cytolytic activity was assessed by measuring the loss of viable target cells over a period of four days, as determined by red fluorescent signal (using the IncuCyte® Live Cell Analysis System, Essen Bioscience).

CC#CC(=O)N1CCC[C@H]1c1nc(-c2ccc(C(=O)Nc3ccccn3)cc2)c2c(N)nccn12 [compound of Formula (II)]
IC50 [1]: ~368 nM
tumor growth compared with CAR T administered with vehicle alone ([2]; with CAR T, drinking water 25 mg/kg/day): significantly (P<0.001) decreased tumor growth
median survival compared to suboptimal anti-CD19 CAR T cell dose+vehicle ([2]; with CAR-T cells, drinking water 25 mg/kg/day from day 4, p<0.001): increased median survival
percentage of TH1 cells [3]: no significant effects were observed
Cmax [4]: 1800 nM
cytolytic function of anti-CD19 CAR T cells against K562-CD19 target cells, normalized to untreated control [5]: no negative impact on cytolytic function
